The record followed here is PubChem BioAssay (NCI).

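Dose response: 5 concentrations. Exposure: 48 h. Format: 96-well plates. Endpoint: linear interpolation; highest concentration if not reached. At the TGI there is no net growth.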 Where only a bound is given, the exact number is not on record here.

Some test systems named below: A498 renal; DU-145 prostate; KM12 colon; LOX IMVI melanoma; MDA-MB-231 breast; OVCAR-4 ovarian; SF-268 CNS; SK-MEL-2 melanoma; SNB-19 CNS; SNB-75 CNS.
Assay in all cases: NCI-60 cell line screen, 48 h

As for `Cc1ccc(NC(c2ccccc2)P(=O)(c2ccccc2)c2ccccc2)cc1` (stereo not drawn), the TGI with A498 renal, with DU-145 prostate, in the assay on KM12 colon, in the assay with LOX IMVI melanoma, in the assay on MDA-MB-231 breast and with OVCAR-4 ovarian was greater than 100 µM throughout. The TGI in the assay with SF-268 CNS was greater than 100 µM; with SK-MEL-2 melanoma, greater than 100 µM; with SNB-19 CNS, greater than 100 µM; with SNB-75 CNS it was 41.3 µM.

`CCOC(=O)c1c(NS(=O)(=O)c2ccccc2)sc2c1CCCC2`: the TGI with A498 renal, in the assay on DU-145 prostate, with KM12 colon, in the assay on MDA-MB-231 breast, with SF-268 CNS and with SK-MEL-2 melanoma was greater than 100 µM throughout. Also, the TGI with SNB-19 CNS and in the assay with SNB-75 CNS was greater than 100 µM in each case.

Turning to `CNC(=O)OC1/C(C)=C\C(C)C(O)C(OC)CC(C)CC2=C(OC)C(=O)C=C(C2=O)N(C)C(=O)/C(C)=C/C=C\C1OC` (stereo not drawn), the TGI in the assay with A498 renal is 42.8 µM; with DU-145 prostate, greater than 41.8 µM; with KM12 colon it was 26.3 µM; in the assay on LOX IMVI melanoma, 16.6 µM; in the assay with MDA-MB-231 breast, 6.44 µM; with OVCAR-4 ovarian, 22 µM. Also, the TGI in the assay with SF-268 CNS was 26.1 µM; in the assay on SK-MEL-2 melanoma, 21.9 µM; in the assay on SNB-19 CNS, greater than 75.8 µM; in the assay with SNB-75 CNS, 28.6 µM.

`Clc1ccc(Cc2nc3cc(Cl)c(Cl)cc3n2CC2CCCN3CCCCC23)cc1` (stereo not drawn): the TGI stood at 27.5 µM in the assay on A498 renal; 26.2 µM in the assay on DU-145 prostate; 40 µM in the assay on KM12 colon; 19.4 µM in the assay on LOX IMVI melanoma; 19.3 µM in the assay on MDA-MB-231 breast; 79.4 µM with OVCAR-4 ovarian. The TGI with SF-268 CNS came to 22.3 µM; in the assay with SK-MEL-2 melanoma it was 29.8 µM; in the assay on SNB-19 CNS, 27.1 µM; with SNB-75 CNS, 21.6 µM.

In the case of `Cc1ccc([N+](=O)[O-])cc1S(=O)(=O)Nc1ccc(C2=NN(S(=O)(=O)c3cc([N+](=O)[O-])ccc3C)C(c3ccccc3O)C2)cc1` (stereo not drawn), the TGI in the assay with A498 renal was 83.9 µM; in the assay with DU-145 prostate it was greater than 100 µM; in the assay with KM12 colon, greater than 100 µM; in the assay with LOX IMVI melanoma, greater than 100 µM; in the assay on MDA-MB-231 breast, greater than 100 µM; in the assay on OVCAR-4 ovarian, greater than 100 µM. The TGI with SF-268 CNS, in the assay on SK-MEL-2 melanoma, in the assay with SNB-19 CNS and in the assay with SNB-75 CNS was greater than 100 µM each time.

As to `NC1CC(=O)c2c(I)sc(I)c21` (stereo not drawn), the TGI in the assay with A498 renal is 37.1 µM; in the assay on DU-145 prostate, greater than 55.1 µM; in the assay with KM12 colon, 32.9 µM; in the assay with LOX IMVI melanoma, 27.2 µM; with MDA-MB-231 breast, 38.1 µM; with OVCAR-4 ovarian, 38.4 µM. For the same molecule, the TGI worked out at 46.1 µM in the assay on SF-268 CNS, 36.2 µM in the assay with SK-MEL-2 melanoma, 46.9 µM in the assay with SNB-19 CNS and 37.9 µM with SNB-75 CNS.

`CC(C)C(Sc1nc(N)nc2nc[nH]c12)C(=O)O` (stereo not drawn): the TGI with A498 renal, with DU-145 prostate, in the assay with KM12 colon, with LOX IMVI melanoma, with MDA-MB-231 breast and in the assay on OVCAR-4 ovarian was greater than 100 µM in each case. Further, the TGI in the assay on SF-268 CNS, in the assay on SK-MEL-2 melanoma, in the assay on SNB-19 CNS and with SNB-75 CNS was greater than 100 µM in each case.

As to `CC(C)=CC(=O)c1[nH]c2ccccc2c1CC(=O)NCCc1cnc[nH]1`, the TGI in the assay on A498 renal, with DU-145 prostate, with KM12 colon, with LOX IMVI melanoma, in the assay on MDA-MB-231 breast and with OVCAR-4 ovarian was greater than 100 µM each time. The TGI in the assay on SF-268 CNS, in the assay with SK-MEL-2 melanoma, in the assay with SNB-19 CNS and in the assay on SNB-75 CNS was greater than 100 µM each time.

For `CCc1nnc2sc(-c3ccc(-c4ccccc4[N+](=O)[O-])o3)nn12`, the TGI in the assay with A498 renal, in the assay on DU-145 prostate, in the assay on KM12 colon, in the assay on LOX IMVI melanoma, with MDA-MB-231 breast and in the assay on OVCAR-4 ovarian was greater than 100 µM in each case. Besides, the TGI with SF-268 CNS is greater than 100 µM; in the assay on SK-MEL-2 melanoma it was 95.7 µM; in the assay on SNB-19 CNS, greater than 100 µM; in the assay with SNB-75 CNS it was greater than 100 µM.

For the molecule `O=C(O)c1ccccc1Sc1ccc(C=C2NC(=S)N(c3ccccc3)C2=O)s1`, the TGI was greater than 100 µM in the assay with A498 renal; greater than 100 µM in the assay with DU-145 prostate; greater than 100 µM with KM12 colon; greater than 100 µM in the assay with LOX IMVI melanoma; greater than 100 µM in the assay on MDA-MB-231 breast; 59.8 µM with OVCAR-4 ovarian. The TGI with SF-268 CNS, in the assay with SK-MEL-2 melanoma, with SNB-19 CNS and with SNB-75 CNS was greater than 100 µM throughout.

In the case of `O=C1N[C@@H]([C@H]2CC[C@H](Cl)CN2)C(=O)N[C@H]1[C@H]1CC[C@H](Cl)CN1`, the TGI with A498 renal was 15.6 µM; with DU-145 prostate, 23.8 µM; in the assay on KM12 colon, 19.1 µM; with LOX IMVI melanoma, 2.6 µM; in the assay on MDA-MB-231 breast, 6.43 µM; in the assay with OVCAR-4 ovarian it was 8.78 µM. In addition, the TGI in the assay on SF-268 CNS came to 51.5 µM; in the assay with SK-MEL-2 melanoma, 7.95 µM; in the assay with SNB-19 CNS it was 104 µM; in the assay with SNB-75 CNS, 3.65 µM.

`COc1cc2c(c(O)c1OC)C(O)C1CCC(=O)N1C2c1ccc2c(c1)OCO2` (stereo not drawn): the TGI in the assay with A498 renal, in the assay with DU-145 prostate, in the assay with KM12 colon, with LOX IMVI melanoma, in the assay on MDA-MB-231 breast and in the assay on OVCAR-4 ovarian was greater than 100 µM each time. Further, the TGI in the assay on SF-268 CNS, in the assay with SNB-19 CNS and with SNB-75 CNS was greater than 100 µM each time.

Consider `COc1ccc2cc(CNCCCCCCNC(=O)Nc3cccc4ccccc34)ccc2c1`, for which the TGI with A498 renal, with DU-145 prostate, in the assay with KM12 colon, in the assay with LOX IMVI melanoma, in the assay with MDA-MB-231 breast and in the assay with OVCAR-4 ovarian was greater than 100 µM throughout. Moreover, the TGI in the assay with SF-268 CNS, with SK-MEL-2 melanoma, in the assay with SNB-19 CNS and in the assay on SNB-75 CNS was greater than 100 µM throughout.

With `COc1cc2c(cc1C)NC(=O)/C2=C/c1c(Cl)[nH]c2ccccc12`, the TGI in the assay with A498 renal stood at 16.6 µM; in the assay with DU-145 prostate it was 27 µM; in the assay with KM12 colon, 16.9 µM; in the assay with LOX IMVI melanoma, 17.9 µM; in the assay on MDA-MB-231 breast, 16.9 µM; in the assay on SF-268 CNS, 17.7 µM. The results for the TGI in the assay with SK-MEL-2 melanoma, with SNB-19 CNS and in the assay with SNB-75 CNS were 8.56 µM, 19.2 µM and 21.7 µM, respectively.

As to `O=C1CC2(CCN(Cc3ccccc3)CC2)C(=O)N1N1CCCCC1`, the TGI in the assay with A498 renal, in the assay with DU-145 prostate, in the assay with KM12 colon, in the assay on LOX IMVI melanoma, in the assay on MDA-MB-231 breast and in the assay on SF-268 CNS was greater than 100 µM throughout. Besides, the TGI in the assay with SK-MEL-2 melanoma, with SNB-19 CNS and with SNB-75 CNS was greater than 100 µM throughout.

Turning to `O=C(OC[C@H]1C[C@H]2C(=O)OCCC[C@H]2O1)c1ccccc1`, the TGI with A498 renal, with DU-145 prostate, with KM12 colon, in the assay on MDA-MB-231 breast, in the assay on OVCAR-4 ovarian and with SF-268 CNS was greater than 100 µM each time. The TGI with SK-MEL-2 melanoma, in the assay on SNB-19 CNS and in the assay on SNB-75 CNS was greater than 100 µM in each case.

Regarding `Cc1cc2nc3c(N)nn(CCCN(C)C)c3nc2cc1C`, the TGI in the assay on A498 renal, in the assay on DU-145 prostate, in the assay with KM12 colon, with MDA-MB-231 breast, in the assay with OVCAR-4 ovarian and in the assay with SF-268 CNS was greater than 100 µM each time. Moreover, the TGI in the assay with SNB-19 CNS and in the assay with SNB-75 CNS was greater than 100 µM throughout.

As for `Cc1cccc(NC(=S)NNC(=O)c2cc(-c3ccccc3)nc3ccccc23)c1`, the TGI in the assay on A498 renal is 47.6 µM; with DU-145 prostate, greater than 100 µM; in the assay with KM12 colon it was greater than 100 µM; in the assay on MDA-MB-231 breast, 95 µM; in the assay with OVCAR-4 ovarian, greater than 100 µM; in the assay with SF-268 CNS, greater than 100 µM. Also, the TGI in the assay on SK-MEL-2 melanoma is 45.8 µM; with SNB-19 CNS, greater than 100 µM; with SNB-75 CNS, greater than 100 µM.

With `COc1cccc(C2c3cc4c(cc3OC(NNS(=O)(=O)c3ccc(C)cc3)C2C)OCO4)c1O` (stereo not drawn), the TGI in the assay with A498 renal is 70.4 µM; with DU-145 prostate, greater than 100 µM; with KM12 colon, 79.2 µM; in the assay with LOX IMVI melanoma, greater than 100 µM; in the assay with MDA-MB-231 breast, 49.2 µM; with SF-268 CNS, greater than 100 µM. The TGI in the assay with SK-MEL-2 melanoma was 53 µM; in the assay with SNB-19 CNS, greater than 100 µM; in the assay on SNB-75 CNS, 40.7 µM.

On to `O=C(Cn1c(=O)oc2ccccc21)N(c1ccccc1)c1ccccc1`, for which the TGI with A498 renal, with DU-145 prostate, in the assay on KM12 colon, in the assay on LOX IMVI melanoma, with MDA-MB-231 breast and with SF-268 CNS was greater than 100 µM throughout. Further, the TGI with SK-MEL-2 melanoma is greater than 100 µM; with SNB-19 CNS it was greater than 100 µM; in the assay on SNB-75 CNS, 71 µM.

Regarding `NC1=Nc2ncccc2C(=O)NN1`, the TGI in the assay with A498 renal, in the assay with DU-145 prostate, in the assay on KM12 colon, with LOX IMVI melanoma, in the assay with MDA-MB-231 breast and in the assay with SF-268 CNS was greater than 10 µM each time. For the same molecule, the TGI in the assay on SK-MEL-2 melanoma, in the assay on SNB-19 CNS and in the assay on SNB-75 CNS was greater than 10 µM in each case.
